Test results reported in patent publication US20110263580A1, “METHOD FOR TREATING ALZHEIMER'S DISEASE AND RELATED CONDITIONS” (priority 2008, published 2011).
Like-named read-outs stand apart in the source and are kept apart here.

Assays:
[1] = rhesus monkey, in vivo; for Tolerated: po
Procedure: Compound IA (synthesis example 2 herein) was administered orally to groups of rhesus monkeys by continuous and intermittent regimens over periods of days or weeks. Physical signs were recorded and the absence of loose stool, and other overt physical signs, was taken as tolerance.

Aβ [2] = assay: CSF levels of Aβ post-dose in rhesus monkey; type: in vivo
[3] = Plasma levels of the drug after a single dose in mice; type: in vivo; conditions: single dose of 300 mg/Kg
Procedure: (§1) Compound IIIA (prepared as described in Sparey et al, Bioorg. Med. Chem. Lett. (2005) 15, 4212-4216) was administered orally to groups of mice (n=10) via gavage in 0.5% methylcellulose by a variety of continuous and intermittent regimens over periods of several weeks, and body weights recorded twice-weekly as a measure of tolerance or otherwise of the drug treatment. Less than 20% loss of body weight after 21 days, with no other overt symptoms, was taken as tolerance, and the results are summarised in the following table:
(§2) Plasma levels of Aβ were monitored 4 hours, 1 day, 3 days, 4 days and 7 days after a single dose of 300 mg/Kg, and found to be (respectively), 0%, 0%, 0%, 67% and 85% of the baseline (control) level, indicating prolonged therapeutic efficacy from the single dose. Plasma levels of the drug had declined to zero within 4 days of the single dose.

Aβ [4] = assay: Plasma levels of Aβ after a single dose in mice; type: in vivo; conditions: single dose of 300 mg/Kg
Procedure: as §1, §2

[5] = mouse, in vivo, po
Procedure: as §1, with “table: […]” for “table:”

Aβ42 = assay: CSF Aβ42 in rhesus monkeys, once-weekly dosing; type: in vivo; conditions: oral, once-weekly 30 mpk, over a 3 week period, relative to vehicle-treated controls
Procedure: (§3) Compound VIB (Example 23 herein) was administered orally to rhesus monkeys once-weekly at a dose of 30 mpk and levels of Aβ40 and Aβ42 in the cerebrospinal fluid (CSF) were monitored.

Aβ40 = assay: CSF Aβ40 in rhesus monkeys, once-weekly dosing; type: in vivo; conditions: oral, once-weekly 30 mpk, over a 3 week period, relative to vehicle-treated controls
Procedure: as §3

[6] = Side effects in rhesus monkeys, once-weekly dosing; type: in vivo; conditions: oral, once-weekly 30 mpk
Procedure: as §3

O=S(=O)(N[C@H]1C[C@@](c2cc(F)ccc2F)(S(=O)(=O)c2ccc(Cl)cc2)C1)C(F)(F)F [Compound IA, N-[cis-3-[(4-chlorophenyl)sulfonyl]-3-(2,5-difluorophenyl)cyclobutyl]-1,1,1-trifluoromethanesulfonamide]
Tolerance [1]: tolerated | Tolerated ([1]; 3 mg/kg): No | Tolerated ([1]; 50 mg/kg): Yes | Tolerated ([1]; 200 mg/kg): Yes | Effect on CSF levels of Aβ (Aβ [2]; doses below 10 mg/Kg): do not effect Aβ levels appreciably | Effect on CSF levels of Aβ (Aβ [2]; weekly doses): lower CSF Aβ significantly

O=S1(=O)NC2(CN1CC(F)(F)F)C1CCC2Cc2cc(C=CCN3CCC(C(F)(F)F)CC3)ccc2C1 (stereo not shown) [Compound IIIA]
Time until plasma levels of the drug had declined to zero [3]: ≤ 4 days | Plasma levels of Aβ, % of the baseline (control) level (Aβ [4]; 4 hours after dose): 0% | Plasma levels of Aβ, % of the baseline (control) level (Aβ [4]; 1 day after dose): 0% | Plasma levels of Aβ, % of the baseline (control) level (Aβ [4]; 3 days after dose): 0% | Plasma levels of Aβ, % of the baseline (control) level (Aβ [4]; 4 days after dose): 67% | Plasma levels of Aβ, % of the baseline (control) level (Aβ [4]; 7 days after dose): 85% | Tolerated ([5]; 50 mg/kg): Yes | Tolerated ([5]; 150 mg/kg): No | Tolerated ([5]; 300 mg/kg): Yes

O=S(=O)(N[C@H]1CC[C@@](c2cc(F)ccc2C(F)(F)F)(S(=O)(=O)c2ccc(C(F)(F)F)cc2)CC1)C(F)(F)F [Compound VIB, 1,1,1-trifluoro-N-(4-[5-fluoro-2-(trifluoromethyl)phenyl]-4-{[4-(trifluoromethyl)phenyl]sulfonyl}cyclohexyl)methanesulfonamide]
Average reduction in CSF Aβ42 levels (Aβ42): approximately 40% | Average reduction in CSF Aβ40 levels (Aβ40): approximately 40% | GI toxicity ([6]; 3 week period): no evidence of GI toxicity | Other side-effects (study terminated after 3 weeks) ([6]; unconnected with Notch signalling): respiratory side-effects
